Experimental data as given in patent publication US11505583B2, “Proteins for the treatment of epithelial barrier function disorders” (Second Genome, Inc., priority 2018, dated 2022).

Legend:
[1] = test system: HCT8 enterocyte and HT29-MTX goblet cell lines; assay: Oris Cell Migration assay (epithelial cell wound healing); type: cell-based, human; settings: 48 hours; SG-11 (SEQ ID NO:5 or SEQ ID NO:9) 1 μg/ml, EGF 30 ng/ml, staurosporine 100 nM; FIG. 2
Text: The 96 well Oris Cell Migration assay containing plugs preventing cell attachment in the center of each well was used according to the manufacturer's instructions (Platypus Technologies, Madison, Wis.). The migration assay plates were warmed to room temperature prior to use and plugs were removed from 100% confluence wells prior to cell addition. The HCT8 enterocyte and HT29-MTX goblet cell lines were used at a 9:1 ratio with a total of 5×10^4 total cells added per well (4.5×10^4 HCT8 cells and 0.5×10^4 HT29-MTX cells). Cells were incubated at 37° C.+5% CO2 for 24 hours. Plugs were then removed from all control and sample wells. Control wells included cells treated with the diluent vehicle as the blank, 30 ng/ml epidermal growth factor (EGF) as the positive control, and 100 nM staurosporine as the negative control, all diluted in cRPMI. Sample wells contained SG-11 protein (SEQ ID NO:9) at a concentration of 1 μg/ml diluted in cRPMI. 100% and 0% wells were cultured in cRPMI. […] The green fluorescent viability dye […] was added to all wells at a concentration of 0.5 μg/ml in PBS containing 0.9 mM CaCl2 and 0.5 mM MgCl2, incubated for 30 min at 37° C.+5% CO2, the dye was removed and cells were washed in PBS containing 0.9 mM CaCl2 and 0.5 mM MgCl2 and fluorescence was measured. […] Samples were normalized between 100% and 0% samples and values expressed as a percent growth.

[2] = test system: C57BL/6 mice given 2.5% DSS in drinking water; assay: Concurrent (prophylactic) DSS model of inflammatory bowel disease (Example 4, Example 13A); type: in vivo, mouse; settings: 50 nmoles/kg i.p. b.i.d.
[3] = test system: C57BL/6 mice given 2.5% DSS in drinking water; assay: Therapeutic DSS model of inflammatory bowel disease, treatment after 7 days DSS (Example 5, Example 13B); type: in vivo, mouse
Experimental: In this example, experiments were performed to study the effects of SG-11 in the DSS mouse model when the SG-11 protein is administered to the mice after DSS treatment for 7 days. This differs from the treatment regimen of Example 4 above in which mice were administered SG-11 protein shortly before treatment with DSS.
Eight-week-old male C57BL/6 mice were housed 5 animals per cage and given food and water ad libitum for seven days. Following a 7-day acclimation period, the mice were provided with drinking water containing 2.5% DSS for 7 days. Fresh 2.5% DSS water was prepared every 2 days during the 7 day DSS administration. For this therapeutic DSS study, SG-11 used to treat the animals was fused at its N-terminus to a FLAG Tag (DYKDDDDK; SEQ ID NO:32).
On day 7 normal drinking water was restored and i.p. treatments of 50 nmole/kg of SG-11 (1.3 mg/kg) or Gly2-GLP2 (0.2 mg/kg) were initiated. Treatments were administered twice a day (b.i.d.), with a morning and evening dose (every 8 and 16 hours) for six days.
Body weight was measured daily during the morning treatment. The colon tissue was then harvested and length was measured in centimeters and the tissue was weighed. Fecal material was flushed from the colon and residual PBS removed by gently running the colon tissue through a pair of forceps. The colon tissue was then weighed and colon weight to length ratio in mg/mm was determined. Following weight measurements proximal and distal colon tissue was banked for RNA and protein analysis and the remaining tissues was fixed in 10% neutral buffered formalin for histopathology. Statistical analysis was performed by a one-way ANOVA compared to DSS+vehicle for serum 4KDa-FITC translocation, serum LBP concentrations, colon length, and colon weight to length ratio, while a two-way ANOVA was performed for analysis of body weight. In all analysis, a Fisher's LSD test for multiple comparisons was used. Graphs represent data pooled from two experiments, and are plotted as mean±SEM.
Histopathology analysis was performed on proximal and distal colon tissues from the therapeutic DSS model described above. Proximal (FIG. 13A) and distal (FIG. 13B) colon scores (range 0-4) are presented and as well as the total score for the colon which represents the sum of proximal and distal colon scores (Range 0-8) (FIG. 13C). LMA=Loss of mucosal architecture, Edema=Edema, INF=Inflammation, TMI=Transmural inflammation, MH=Mucosal hyperplasia, DYS=Dysplasia. Graphs represent data pooled from two independent experiments, and are plotted as mean±SEM. Statistical analysis was performed by a one-way ANOVA compared to DSS+vehicle followed by a Fisher's LSD test for multiple comparisons.
In the second experiment (Example 13B), mice were provided with drinking water containing 2.5% DSS for 7 days. On day 7 normal drinking water was restored and i.p. treatments of 50 nmole/kg of SG-11 (SEQ ID NO:7) (1.3 mg/kg), SG-11V5 (SEQ ID NO:19) (1.3 mg/kg), or Gly2-GLP2 (0.2 mg/kg) were initiated. […]
At the end of each DSS model study, mice were fasted for 4 hours and then orally gavaged with 600 mg/kg 4KDa dextran labeled with fluorescein isothiocyanate (FITC) [4KDa-FITC]. One hour after the 4KDa-FITC gavage mice were euthanized, blood was collected and FITC signal was measured in serum. […]
Upon completion of the DSS models above, LBP levels were measured as an inflammation centric readout of barrier function following the protocol detailed in Example 5. […]

[4] = mouse, in vivo, ip
[5] = Example 5, colon tissue, vs DSS+vehicle, FIG. 13

CN[C@@H]1C[C@H]2O[C@@](C)([C@@H]1OC)n1c3ccccc3c3c4c(c5c6ccccc6n2c5c31)C(=O)NC4 [staurosporine]
Percent growth (epithelial cell wound healing, proliferation) [1]: suppressing cell proliferation

Gly2-GLP2: stable analog of glucagon-like peptide 2 (GLP2), positive control (HGDGSFSDEMNTILDNLAARDFINWLIQTKITD; Glucagon-like peptide 2; UniProt P01275 146-178, looked up, variant A2G) [reference compound]
Colon length ([2]; FIG. 8A): significant improvement in colon length | Colon weight to length ratio ([2]; FIG. 8B): significant improvement in colon weight to length ratios | LBP in serum ([3]; Example 5, 50 nmole/kg i.p. b.i.d. for six days after 7 days DSS, FIG. 10): no reduction in LBP | Histopathology: inflammation and transmural inflammation scores [3, 5]: no change | Histopathology: loss of mucosal architecture score [3, 5]: modest, but significant, reduction | Colon weight to length ratio ([3]; Example 13B, 50 nmole/kg, vs DSS+vehicle, p<0.01, FIG. 23B): did not | 4KDa-FITC intestinal permeability readout and serum LBP ([3]; treatment after 7 days DSS, 50 nmole/kg i.p. b.i.d. for six days, FLAG-tagged SG-11): no significant effects

epidermal growth factor [EGF, positive control in the wound healing assay]
Percent growth (epithelial cell wound healing, proliferation) [1]: increasing proliferation

fluorescently labeled bovine serum albumin: tracer protein used in preliminary tracking studies after i.p. injection
Time at which protein reached the colon after i.p. delivery [4]: 6 h
